Earlier results as cited in the CATMoS acute toxicity set (Mansouri et al. 2021).
Several values for one entry are separate records, joined by “and”; a condition that tells them apart may be missing. Equal entries are not always repeated.

assay: rat acute oral toxicity; settings: in vivo

SMILES | LD50
CCOC(CC)(C1=NCC(C)(C)CN1)c1ccc(Cl)cc1 (centres undefined) | 58 mg/kg
CC(=O)OC(C(Cl)(Cl)Cl)P(=O)(Oc1ccccc1)Oc1ccccc1 (centres undefined) | 3280 mg/kg
O=C1N(Cl)C2C(N1Cl)N(Cl)C(=O)N2Cl (centres undefined) | 2150 mg/kg
OCC1CCC(CO)CC1 (centres undefined) | 3200 mg/kg
CNCCCC1(C#N)c2ccccc2CCc2ccccc21 | 889 mg/kg
COC=CC=C(C#N)C#N | 200 mg/kg
CC(C(=O)O)c1ccc2c(c1)C(=O)Cc1ccccc1O2 (centres undefined) | 106 mg/kg
CCCCB(CCCC)CCCC | 1120 mg/kg
Cc1cccc(N2CCN(CC=Cc3ccc4c(c3)CCC(=O)N4Cc3ccccc3)CC2)c1 | 500 mg/kg
N#CSCSC#N | 55 mg/kg
CCc1ccc(OCC=C(C)CCC=C(C)C)cn1 | 800 mg/kg
CN=C(O)O/N=C1/SC(C)OC1C (centres undefined) | 4.5 mg/kg
COc1ccc(C(=O)CCC(=O)O)c2c(C)c(C)oc12 | 2180 mg/kg
N#CCCCCC#N | 155 mg/kg
CC(C)c1cccc(OC(=O)N(C)N=O)c1 | 400 mg/kg
CCOP(=S)(OCC)ON1C(=O)c2cccc3cccc(c23)C1=O | 500 mg/kg
CN(C)N | 122 mg/kg and 196 mg/kg
N#C/C(=C1\SCC(c2ccccc2Cl)S1)n1ccnc1 (centres undefined) | 652 mg/kg
CCOS(=O)(=O)OCC | 880 mg/kg
Cc1ccc2c(c1)CC(=O)c1cc(C(C)C(=O)O)ccc1O2 (centres undefined) | 147 mg/kg
C=C1/C(=C/C=C2/CCC[C@]3(C)[C@@H]([C@H](C)CCCC(C)C)CC[C@@H]23)C[C@@H](O)C[C@@H]1O | 0.34 mg/kg
CCOC(=O)C(CC)(C(=O)NCCN(CC)CC)c1ccccc1 (centres undefined) | 610 mg/kg
CO[SiH](OC)OC | 9330 mg/kg
CCN=C1SC(=NOC(=O)NC)C(C)(C)S1 | 6.3 mg/kg
Nc1c(Cl)cc(Cl)cc1Cl | 2400 mg/kg
CCN1CC(CCN2CCOCC2)C(c2ccccc2)(c2ccccc2)C1=O (centres undefined) | 261 mg/kg

SMILES | LD50
Fc1cccc(C(F)(F)F)n1 | 50 mg/kg
CCOC(=O)C1=CN(C(C)=O)C2CCCC(C)N2C1=O (centres undefined) | 2500 mg/kg
Cc1nc(-c2cccnc2)sc1[N+](=O)[O-] | 815 mg/kg
Cc1ccc(=O)n(CSP(=S)(OC(C)C)OC(C)C)n1 | 155 mg/kg
O=NN(Cc1ccccc1)Cc1ccccc1 | 900 mg/kg
CCOc1ccc(Cl)cc1C(CN(C)C)C(C)CC (centres undefined) | 632 mg/kg
Cl/C(=N/Nc1c(Cl)cc(Cl)cc1Cl)c1ccccc1 | 718 mg/kg
FC(F)(F)c1nc2c(Br)cc(Br)c(Br)c2[nH]1 | 12.8 mg/kg
CC=CC=CC(=O)NO | 2460 mg/kg
O=C(O)c1cc(I)cc(I)c1I | 2200 mg/kg and 813 mg/kg
CC(C)C(Br)C(=O)O (centres undefined) | 769 mg/kg
COc1cc(C(C)=O)ccc1OCCCCN1CCN(c2ccccc2)CC1 | 573 mg/kg
CCOC(C1=NCC(C)(C)CN1)c1ccc(OC)cc1 (centres undefined) | 625 mg/kg
CC(=O)C=Cc1ccco1 | 325 mg/kg
O=C(CN1CCCCC1)N1CCOc2ccccc21 | 200 mg/kg
O=[N+]([O-])O[C@H]1CO[C@H]2[C@@H]1OC[C@H]2O[N+](=O)[O-] | 747 mg/kg
COc1ccc(/C=C/C(=O)Nc2ccccc2C(=O)O)cc1OC | 1100 mg/kg
CCCN(CCC)C(=O)CN(CC)P(=S)(OCC)OCC | 2080 mg/kg
O=NN(c1ccccc1)c1ccccc1 | 1820 mg/kg
CCC(Br)(CC)C(=O)NC(N)=O | 316 mg/kg
CC1CCCc2n1c(=O)c(C(N)=O)c[n+]2C (centres undefined) | 600 mg/kg
COP(=O)(SC(C)C)SC(C)C | 119 mg/kg
NS(=O)(=O)c1cc2c(cc1Cl)N=CNS2(=O)=O | 10000 mg/kg
Cc1cc(O)cc(C)c1Cl | 3830 mg/kg
CC(C)COC(=O)c1ccccc1 | 5600 mg/kg
CN(CC(=O)N1CCOCC1)Cc1c(Cl)cccc1NC(=O)c1ccccc1 | 4200 mg/kg

SMILES | LD50
CC(=O)Nc1cc(Cl)ccc1Cl | 4100 mg/kg
CCOc1ccc2c(c1)C(C)=CC(C)(C)N2 | 3580 mg/kg
CCCCCCC(C)=CC#N | 1720 mg/kg
FC(F)(F)c1nc2cc(Br)c(Cl)cc2[nH]1 | 9.04 mg/kg
O=C1OC(c2ccc(O)cc2)(c2ccc(O)cc2)c2c(I)c(I)c(I)c(I)c21 | 2800 mg/kg
CC(CCC(=O)O)C(=O)O (centres undefined) | 300 mg/kg
O=C=NCc1ccc(CN=C=O)cc1 | 4500 mg/kg
CC(N)C1(C)CCCO1 (centres undefined) | 130 mg/kg
CCCOc1ccc(C=CC(=S)OCC)cc1OC | 1010 mg/kg
CC(C)COC(=O)C(C)Oc1ccc(Oc2ccc(Cl)cc2)cc1 (centres undefined) | 723 mg/kg
CCOCCC#N | 3200 mg/kg
CCOC(=O)Cc1ccccc1 | 3300 mg/kg
CCCCc1ccc(O)cc1O | 500 mg/kg
CC1(C)COC(c2ccccc2)CN1 (centres undefined) | 450 mg/kg and 480 mg/kg
C=CCC(C(=O)NC(N)=O)C(C)C (centres undefined) | 1050 mg/kg
O=S1(=O)CC(Cl)C(Cl)C1 (centres undefined) | 482 mg/kg
O[C@H](c1cc(-c2ccc(C(F)(F)F)cc2)nc(C(F)(F)F)c1)[C@H]1CCCCN1 | 518 mg/kg
CCOP(=S)(OC(C)C)ON1C(=O)c2ccccc2C1=O (centres undefined) | 250 mg/kg
CC(C(=O)O)c1ccc(CC2CCCC2=O)cc1 (centres undefined) | 145 mg/kg
CNC(=O)c1cc(OC)n(-c2cccc(Cl)c2)n1 | 1540 mg/kg
CC(O)c1cc(N)cc(C(F)(F)F)c1 (centres undefined) | 880 mg/kg
CCS(=O)CC | 5650 mg/kg
O=C(O)CCCCCCCCCl | 3000 mg/kg
CCCCn1cnnc1 | 50 mg/kg
N#CC(Cl)(Cl)CCl | 200 mg/kg and 250 mg/kg
CC(C)(C)OC(=O)N1CC(=O)C1 | 2500 mg/kg

SMILES | LD50
ClCCO[SiH](OCCCl)OCCCl | 190 mg/kg
CC(=NOC(=O)N(C)SSN(C)C(=O)ON=C(C)SCCC#N)SCCC#N | 80 mg/kg
COc1ccc2c(c1)C13CCCCC1C(C2)N(C)CC3 (centres undefined) | 235 mg/kg
CCCOC(=O)CC(SP(=S)(OC)OC)C(=O)OCCC (centres undefined) | 6000 mg/kg
CCCCC1OC(=O)c2ccccc21 (centres undefined) | 2450 mg/kg
CC(C)(C)c1ccc(C(=O)O)cc1 | 473 mg/kg
ClCCOCCC(OCCCl)OCCCl | 710 mg/kg
CC(=O)Oc1c(C(C)(C)C)cc([N+](=O)[O-])c(C)c1[N+](=O)[O-] | 42 mg/kg
O=C(O)CCCCCC(=O)O | 7000 mg/kg
CN(C)N=Nc1ccc(F)cc1 | 326 mg/kg
NNC(=O)CSc1cc(Oc2ccc(Cl)cc2)ncn1 | 800 mg/kg
CN1CCC2(C)c3cc(OC(=O)NCCCCCCCCN4CCSCC4)ccc3N(C)C12 (centres undefined) | 23.8 mg/kg
FC(Cl)(C(Cl)(Cl)Cl)C(Cl)(Cl)Cl | 500 mg/kg
CC(C)CCCC(C)NN (centres undefined) | 108 mg/kg
CN(C)CCC=C1c2ccccc2C(C)(C)c2ccccc21 | 170 mg/kg
CCC1OC1(C)C (centres undefined) | 3500 mg/kg
Clc1cccc(N2CCNCC2)n1 | 174 mg/kg
CCCCOCCOCCOC(=O)c1ccccc1C(=O)OCCOCCOCCCC | 9700 mg/kg
CCCC(C)C(=O)Nc1ccc(C)c(Cl)c1 (centres undefined) | 5100 mg/kg
CN(CCCCCCN(C)C(=O)Oc1ccc[n+](C)c1)C(=O)Oc1ccc[n+](C)c1 | 10 mg/kg
O=C(OC[C@H]1O[C@@H](OC(=O)c2cc(O)c(O)c(OC(=O)c3cc(O)c(O)c(O)c3)c2)[C@H](OC(=O)c2cc(O)c(O)c(OC(=O)c3cc(O)c(O)c(O)c3)c2)[C@@H](OC(=O)c2cc(O)c(O)c(OC(=O)c3cc(O)c(O)c(O)c3)c2)[C@@H]1OC(=O)c1cc(O)c(O)c(OC(=O)c2cc(O)c(O)c(O)c2)c1)c1cc(O)c(O)c(OC(=O)c2cc(O)c(O)c(O)c2)c1 | 2260 mg/kg
COP(=O)(OC)OC(=C(Br)Br)c1ccc(Cl)cc1Cl | 180 mg/kg
CC1(c2ccccc2)OC(C(=O)O)=CC1=O (centres undefined) | 3000 mg/kg
O=C1C2C3CCC(C3)C2C(=O)N1CCCCN1CCN(c2ncccn2)CC1 (centres undefined) | 590 mg/kg
Cc1nc(C)c(C(=O)Nc2ccccc2)s1 | 3930 mg/kg
O=[N+]([O-])c1cc(Cl)cc2[nH]c(C(F)(F)F)nc12 | 2.78 mg/kg
